Test systems include CCRF-CEM leukemia; EKVX NSCLC; HOP-92 NSCLC; IGROV1 ovarian; K-562 leukemia; KM12 colon; MCF7 breast; NCI-H460 lung; NCI/ADR-RES ovarian; OVCAR-3 ovarian; OVCAR-4 ovarian; OVCAR-8 ovarian; RPMI-8226 leukemia; SF-295 CNS; SW-620 colon; T-47D breast; NCI-H522 lung; SF-268 CNS; HL-60(TB) leukemia; MALME-3M melanoma.
Common to all, as to experiment: inhibition of tumour cell growth, NCI panel, 48 h

The structures appear in SMILES notation.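 Test compounds were applied to cells in 96-well plates for 48 hours at 5 doses. TGI: total growth inhibition.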 A value given as a limit tells only on which side of the number the result lay.

As for `O=C(O)c1nc2ccc(C(F)(F)F)cc2nc1NCc1ccc(F)cc1`, the TGI in the assay on CCRF-CEM leukemia was > 100 µM; with EKVX NSCLC, 68.3 µM; in the assay on HOP-92 NSCLC it was 45.3 µM; in the assay on IGROV1 ovarian, > 100 µM; in the assay on K-562 leukemia, 55.6 µM; in the assay on KM12 colon, > 100 µM. For the same molecule, the TGI with MCF7 breast was 68.8 µM; with NCI-H460 lung it was 63 µM; with NCI/ADR-RES ovarian it was > 100 µM; in the assay on OVCAR-3 ovarian it was 33.2 µM; in the assay with OVCAR-4 ovarian, > 100 µM; in the assay with OVCAR-8 ovarian it was 55.7 µM. Also, the TGI with RPMI-8226 leukemia was > 100 µM; in the assay on SF-295 CNS it was 81.1 µM; in the assay on SW-620 colon, > 100 µM; in the assay with T-47D breast, > 100 µM.
As for `COc1ccc(OC)c(C(Cc2ccnc3ccccc23)Cc2ccnc3ccccc23)c1`, the TGI with CCRF-CEM leukemia, with EKVX NSCLC, in the assay on HOP-92 NSCLC, in the assay with IGROV1 ovarian, in the assay with K-562 leukemia and in the assay on KM12 colon was > 10 µM throughout. In addition, the TGI with MCF7 breast, in the assay on NCI-H460 lung, in the assay on NCI-H522 lung, in the assay with NCI/ADR-RES ovarian, in the assay with OVCAR-3 ovarian and in the assay on OVCAR-4 ovarian was > 10 µM in each case. Moreover, the TGI in the assay on OVCAR-8 ovarian, in the assay on RPMI-8226 leukemia, in the assay with SF-268 CNS, with SF-295 CNS, in the assay on SW-620 colon and in the assay with T-47D breast was > 10 µM in each case.
As to `CCCCSC1=N/C(=C\c2ccco2)C(Cl)=N1`, the TGI in the assay with CCRF-CEM leukemia, in the assay on EKVX NSCLC, in the assay with HL-60(TB) leukemia, in the assay with IGROV1 ovarian, in the assay with KM12 colon and with MALME-3M melanoma was > 100 µM throughout. Moreover, the TGI in the assay with MCF7 breast, with NCI-H460 lung, in the assay with NCI-H522 lung, in the assay with NCI/ADR-RES ovarian, in the assay on OVCAR-3 ovarian and with OVCAR-4 ovarian was > 100 µM throughout. Also, the TGI with OVCAR-8 ovarian, with RPMI-8226 leukemia, in the assay on SF-268 CNS, in the assay on SF-295 CNS, in the assay with SW-620 colon and in the assay with T-47D breast was > 100 µM each time.
`CCC(=O)O[C@H]1CC[C@H]2[C@@H]3CCC4=C/C(=N/OC(=O)c5cccc6c(=O)c7ccccc7[nH]c56)CC[C@]4(C)[C@H]3CC[C@]12C`: the TGI with CCRF-CEM leukemia was 57.5 µM; in the assay with EKVX NSCLC, > 100 µM; in the assay with HOP-92 NSCLC it was 74.5 µM; with IGROV1 ovarian, 77.6 µM; in the assay on K-562 leukemia, 47 µM; in the assay on KM12 colon it was 55.1 µM. Also, the TGI is 48.2 µM in the assay with MCF7 breast; 54.5 µM in the assay on NCI-H460 lung; 56.1 µM in the assay with NCI-H522 lung; > 100 µM with NCI/ADR-RES ovarian; 38.4 µM in the assay with OVCAR-3 ovarian; > 100 µM in the assay with OVCAR-4 ovarian. For the same molecule, the TGI in the assay on OVCAR-8 ovarian is > 100 µM; in the assay on RPMI-8226 leukemia, 54.7 µM; in the assay with SF-268 CNS, > 100 µM; in the assay with SF-295 CNS, > 100 µM; in the assay on SW-620 colon it was > 100 µM; in the assay with T-47D breast, > 100 µM.
Turning to `CC(=O)N(CCc1ccccc1)C(C#N)c1ccccc1` (stereo unspecified), the TGI in the assay with CCRF-CEM leukemia, with EKVX NSCLC, in the assay with HL-60(TB) leukemia, with IGROV1 ovarian, with K-562 leukemia and with KM12 colon was > 100 µM throughout. For the same molecule, the TGI with MALME-3M melanoma, in the assay with MCF7 breast, in the assay with NCI-H522 lung, in the assay with NCI/ADR-RES ovarian, in the assay on OVCAR-3 ovarian and in the assay with OVCAR-4 ovarian was > 100 µM each time. Moreover, the TGI in the assay with OVCAR-8 ovarian, in the assay on RPMI-8226 leukemia, with SF-268 CNS, in the assay on SF-295 CNS, in the assay with SW-620 colon and with T-47D breast was > 100 µM each time.
For the molecule `O=C(N[C@@H](c1ccccc1)[C@@H](O)C(=O)OCc1ccc([N+](=O)[O-])cc1)c1ccccc1`, the TGI with CCRF-CEM leukemia, in the assay with EKVX NSCLC, with HOP-92 NSCLC, in the assay with IGROV1 ovarian, in the assay on K-562 leukemia and in the assay with KM12 colon was > 100 µM throughout. Also, the TGI in the assay with MALME-3M melanoma, in the assay on MCF7 breast, in the assay with NCI-H460 lung, in the assay with NCI-H522 lung, in the assay on NCI/ADR-RES ovarian and in the assay with OVCAR-3 ovarian was > 100 µM throughout. Further, the TGI in the assay with OVCAR-4 ovarian, in the assay with OVCAR-8 ovarian, in the assay with SF-268 CNS, in the assay on SW-620 colon and in the assay with T-47D breast was > 100 µM in each case.
In the case of `O=C(/C=C/c1ccc(OCc2cccc(Cl)c2)cc1)NO`, the TGI in the assay with CCRF-CEM leukemia was 26.6 µM; in the assay on EKVX NSCLC, > 100 µM; in the assay on HL-60(TB) leukemia, 35.9 µM; with HOP-92 NSCLC it was 33.8 µM; in the assay on IGROV1 ovarian it was 38 µM; in the assay with K-562 leukemia it was > 100 µM. Besides, the TGI in the assay on KM12 colon is 43 µM; in the assay on MCF7 breast, > 100 µM; in the assay with NCI-H460 lung, 41.9 µM; with NCI-H522 lung it was 49.4 µM; in the assay on NCI/ADR-RES ovarian, 23.3 µM; in the assay on OVCAR-3 ovarian, > 100 µM. Moreover, the TGI in the assay with OVCAR-4 ovarian was 38 µM; in the assay on OVCAR-8 ovarian, 20.3 µM; with RPMI-8226 leukemia, 44.8 µM; in the assay on SF-268 CNS, > 100 µM; with SF-295 CNS, 50.1 µM; with SW-620 colon, > 100 µM. Moreover, the TGI in the assay with T-47D breast turned out to be 36.7 µM.
`O=c1cc(CO)oc(C(O)c2ccccc2)c1O` (stereo unspecified): the TGI in the assay on HL-60(TB) leukemia, with HOP-92 NSCLC, with IGROV1 ovarian, in the assay on KM12 colon, with MALME-3M melanoma and in the assay with MCF7 breast was > 100 µM throughout. The TGI in the assay with NCI-H460 lung, in the assay with NCI-H522 lung, in the assay with NCI/ADR-RES ovarian, in the assay on OVCAR-3 ovarian, in the assay with OVCAR-4 ovarian and in the assay on OVCAR-8 ovarian was > 100 µM throughout. Besides, the TGI in the assay on RPMI-8226 leukemia, in the assay on SF-268 CNS, with SF-295 CNS, in the assay on SW-620 colon and in the assay on T-47D breast was > 100 µM throughout.

(Values after PubChem BioAssay (NCI).)
